Entries after “also recorded” stand apart in the source; their conditions may differ. Like-named read-outs stand apart in the source and are kept apart here.

Data on three compounds can be found in patent US20120252748A1, “METHODS AND COMPOSITIONS FOR DETERMINING THE RESPONSIVENESS OF CANCER THERAPEUTICS” (New York University, priority 2011, published 2012).

Assay [1] relates to MCF-7 cells forced to express ACSL4. The assay is described as follows: Tamoxifen sensitivity of MCF-7 cells forced to express ACSL4. It counts as cell-based, human. Conditions: forced ACSL4 expression in MCF-7, FIG. 16. How it is done: (§1) An analysis was performed on breast cancer cell lines that are hormone receptor positive and positive for ACSL4 expression. […] In the present study, estrogen responsive MCF-7 cells, which are ACSL4-negative, were forced to express […]. […] The results were confirmed using conditional and stable transfection techniques.

In a further assay the test system is MDA-MB-231 cells. The assay is described as follows: Effect of triacsin C on relative cell number of MDA-MB-231 control and ACSL4 knockdown cells. It counts as cell-based, human. Conditions: for IC50: FIG. 7C, read-out: half-maximal inhibitory concentration. How it is done: Relative differences in cell number were quantitated using the Cell Titer 96 AQueous Reagent purchased from Promega (Madison, Wis.). Protocols used were as described by the manufacturer.
MDA-MB-231 cells were treated for 48 hours with either a control or ACSL4-specific siRNA. The siRNA was a SmartPool siRNA obtained from Dharmacon, consisting of 4 separate siRNAs.
Next, the effect of triacsin C treatment on MDA-MB-231 control and knockdown cells were compared. […] Mashima et al., Cancer Sci., 100: 1556-1562 (2009).

The next assay addresses T1, ACSL1 (Rattus norvegicus, UniProt P18163).
T1 sequence (P18163 1-699): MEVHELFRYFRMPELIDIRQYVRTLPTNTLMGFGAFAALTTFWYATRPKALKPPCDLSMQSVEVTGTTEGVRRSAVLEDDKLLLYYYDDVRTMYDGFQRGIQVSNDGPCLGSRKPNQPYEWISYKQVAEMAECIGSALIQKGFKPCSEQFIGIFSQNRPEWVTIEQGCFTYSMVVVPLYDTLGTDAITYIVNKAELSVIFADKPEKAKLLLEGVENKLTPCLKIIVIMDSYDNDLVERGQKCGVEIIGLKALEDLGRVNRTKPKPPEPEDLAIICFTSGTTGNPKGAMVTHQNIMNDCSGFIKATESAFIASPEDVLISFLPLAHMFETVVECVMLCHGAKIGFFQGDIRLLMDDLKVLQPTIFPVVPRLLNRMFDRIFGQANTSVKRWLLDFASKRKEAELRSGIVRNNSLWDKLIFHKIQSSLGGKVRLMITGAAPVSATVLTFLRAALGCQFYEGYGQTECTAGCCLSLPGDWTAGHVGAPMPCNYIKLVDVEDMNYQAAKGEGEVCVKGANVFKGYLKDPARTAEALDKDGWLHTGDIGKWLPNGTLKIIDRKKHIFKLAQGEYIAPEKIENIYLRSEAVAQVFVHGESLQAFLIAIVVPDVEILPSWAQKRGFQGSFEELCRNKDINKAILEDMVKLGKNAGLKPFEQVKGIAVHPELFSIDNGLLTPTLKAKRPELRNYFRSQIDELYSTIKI
The conditions noted are these: cited from earlier work.

The next assay addresses ACSL3 (Rattus norvegicus, UniProt Q63151). Conditions: Van Horn et al. 2005; cited from earlier work.
Another assay addresses ACSL4 (Rattus norvegicus, UniProt O35547). Conditions: cited from earlier work.
The target of a further assay is T2, ACSL5 (Rattus norvegicus, UniProt O88813).
T2 sequence (O88813 1-683): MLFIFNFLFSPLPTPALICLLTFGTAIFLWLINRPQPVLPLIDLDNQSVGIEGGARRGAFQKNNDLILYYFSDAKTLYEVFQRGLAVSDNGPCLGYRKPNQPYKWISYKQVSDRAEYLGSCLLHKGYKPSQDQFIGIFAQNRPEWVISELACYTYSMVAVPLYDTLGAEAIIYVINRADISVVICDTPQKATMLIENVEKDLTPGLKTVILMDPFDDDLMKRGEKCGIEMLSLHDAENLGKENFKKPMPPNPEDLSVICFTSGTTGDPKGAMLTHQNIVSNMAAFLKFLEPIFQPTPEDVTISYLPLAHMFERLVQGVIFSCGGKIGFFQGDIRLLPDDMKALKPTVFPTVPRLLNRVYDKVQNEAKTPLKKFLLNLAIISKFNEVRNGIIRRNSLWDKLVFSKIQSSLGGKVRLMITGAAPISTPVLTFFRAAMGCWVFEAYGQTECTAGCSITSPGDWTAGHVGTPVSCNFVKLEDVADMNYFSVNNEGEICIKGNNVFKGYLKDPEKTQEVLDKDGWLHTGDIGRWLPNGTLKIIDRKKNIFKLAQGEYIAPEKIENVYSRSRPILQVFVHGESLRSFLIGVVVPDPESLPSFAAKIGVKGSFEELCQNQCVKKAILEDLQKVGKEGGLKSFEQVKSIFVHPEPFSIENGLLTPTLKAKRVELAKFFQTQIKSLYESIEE
The conditions noted are these: Van Horn et al. 2005; cited from earlier work.

The test system of another assay is ACSL6. Conditions: Van Horn et al. 2005; cited from earlier work.
Assay [2] has as its system a variety of cancer cells. Conditions: Mashima et al. 2009; cited from earlier work.
For a further assay, the system named is MDA-MB-415 cells. The assay is described as follows: Growth response to estrogen, MDA-MB-415 cells. It counts as cell-based, human. Conditions: MDA-MB-415 (ER-positive, ACSL4-positive), versus control without estrogen, FIG. 5. How it is done: (§2) As indicated above in the results of Example 2, two cell lines which were ER-positive where also ACSL4-positive. A study comparing cell growth in the presence of estrogen of one of these cell lines (MDA-MB-415) to a cell line which is ER-positive and ACSL4 negative (MCF-7) was performed.

The subject of the next assay is MCF-7 cells. As to the kind of experiment: Growth response to estrogen, MCF-7 cells. It counts as cell-based, human. Conditions: MCF-7 (ER-positive, ACSL4-negative), versus estrogen-free control, FIG. 5, FIG. 6A. How it is done:
as §2
(§3) Additionally, a study was performed in which cell growth in the presence of estrogen of the estrogen dependent MCF-7 cells, which are ACSL4 negative, were compared to modified MCF-7 cells, which were induced to express ACSL4.

Assay [3] has as its system MCF-7 cells genetically manipulated to express ACSL4. The assay is described as follows: Growth response to estrogen, MCF-7 cells genetically manipulated to express ACSL4. The conditions noted are these: MCF-7 expressing ACSL4, versus estrogen-free conditions, FIG. 6B. It counts as cell-based, human. How it is done:
as §3, §1

Sequence of ACSL4 (O35547 whole entry): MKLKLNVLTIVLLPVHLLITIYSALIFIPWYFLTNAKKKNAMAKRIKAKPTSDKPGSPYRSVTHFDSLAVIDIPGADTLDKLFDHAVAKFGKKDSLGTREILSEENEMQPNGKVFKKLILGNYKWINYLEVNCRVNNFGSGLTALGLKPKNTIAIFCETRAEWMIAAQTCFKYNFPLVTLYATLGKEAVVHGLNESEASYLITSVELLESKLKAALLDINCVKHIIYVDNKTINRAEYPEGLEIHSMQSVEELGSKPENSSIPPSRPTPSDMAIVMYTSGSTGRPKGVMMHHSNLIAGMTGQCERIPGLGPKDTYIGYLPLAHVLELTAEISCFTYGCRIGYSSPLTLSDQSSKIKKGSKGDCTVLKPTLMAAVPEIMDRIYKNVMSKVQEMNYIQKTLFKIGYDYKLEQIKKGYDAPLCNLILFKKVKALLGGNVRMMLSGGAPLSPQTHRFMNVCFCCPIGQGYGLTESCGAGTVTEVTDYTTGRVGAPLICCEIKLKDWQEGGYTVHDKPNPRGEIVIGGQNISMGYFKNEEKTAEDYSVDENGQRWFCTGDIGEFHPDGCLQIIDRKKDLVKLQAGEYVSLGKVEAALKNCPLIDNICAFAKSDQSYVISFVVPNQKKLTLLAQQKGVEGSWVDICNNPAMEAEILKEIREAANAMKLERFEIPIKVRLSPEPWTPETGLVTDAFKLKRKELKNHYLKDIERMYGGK
Sequence of ACSL3 (Q63151 whole entry): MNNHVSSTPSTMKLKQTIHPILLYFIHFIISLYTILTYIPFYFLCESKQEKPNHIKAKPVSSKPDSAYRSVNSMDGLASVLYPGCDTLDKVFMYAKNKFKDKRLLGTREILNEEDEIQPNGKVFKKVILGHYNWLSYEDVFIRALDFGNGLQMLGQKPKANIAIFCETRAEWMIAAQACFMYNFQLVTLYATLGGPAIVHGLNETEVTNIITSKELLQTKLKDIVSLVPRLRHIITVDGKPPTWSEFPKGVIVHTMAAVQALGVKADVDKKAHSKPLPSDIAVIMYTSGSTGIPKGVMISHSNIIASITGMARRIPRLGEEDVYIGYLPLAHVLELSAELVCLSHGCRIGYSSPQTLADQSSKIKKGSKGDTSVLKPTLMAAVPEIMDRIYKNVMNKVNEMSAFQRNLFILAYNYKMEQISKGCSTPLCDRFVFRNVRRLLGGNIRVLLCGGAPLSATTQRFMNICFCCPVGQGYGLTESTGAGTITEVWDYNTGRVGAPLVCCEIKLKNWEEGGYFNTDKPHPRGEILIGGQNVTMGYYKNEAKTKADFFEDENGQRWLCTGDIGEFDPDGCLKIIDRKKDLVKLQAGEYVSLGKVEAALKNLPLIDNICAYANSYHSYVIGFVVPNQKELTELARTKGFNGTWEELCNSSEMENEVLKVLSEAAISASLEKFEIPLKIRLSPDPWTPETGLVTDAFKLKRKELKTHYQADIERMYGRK

`CC/C(=C(\c1ccccc1)c1ccc(OCCN(C)C)cc1)c1ccccc1` [tamoxifen]: the “sensitivity to tamoxifen treatment” value in assay [1] is given as “decrease in the sensitivity”.

Turning to `CCC/C=C/C/C=C/C=C/C=N/NN=O` [triacsin C], the “increase in triacsin C sensitivity on ablation of ACSL4” value in the assay with MDA-MB-231 cells (ACSL4 knockdown versus control MDA-MB-231 cells) was “three-fold increase”. The IC50 in the assay on MDA-MB-231 cells (MDA-MB-231 ACSL4 knockdown cells (ACSL4-siRNA)) came to 560 nM; in the assay on MDA-MB-231 cells (MDA-MB-231 control cells (control siRNA)) it was 1590 nM. For the same compound, the “inhibition of ACSL1” value at ACSL1 (Van Horn et al. 2005) was “specific for inhibition”. For the same compound, the “relative sensitivity by reported half-maximal inhibitory concentration values” on ACSL1 (ranking among ACSL1, 3 and 4) was “most sensitive”; on ACSL4 (ranking among ACSL1, 3 and 4), “least sensitive”. In addition, the “inhibition of ACSL3” value on ACSL3 was “specific for inhibition”. In addition, at ACSL4 (Van Horn et al. 2005), the “inhibition of ACSL4” value is “specific for inhibition”. Further, the “effect on the activity of ACSL5” value on ACSL5 is on record as “little or no effect”. In addition, the “effect on the activity of ACSL6” value in the assay with ACSL6 is “little or no effect”. In [2], the “apoptosis of cancer cells” value is “induce apoptosis”. Further, the “proliferation of cancer cells” value in assay [2] is listed as “inhibit proliferation”.

estrogen: the “growth response to estrogen” value is given as “no significant growth response; also recorded: no increase in cellular proliferation” in the assay with MDA-MB-415 cells, “significant growth response; also recorded: proliferative growth effect” in the assay with MCF-7 cells and “became unresponsive to the proliferative effect; also recorded: loss of responsiveness” in assay [3].
